According to patent US20160168185A1 (BAYLOR COLLEGE OF MEDICINE, priority 2013, published 2016):
Where two headings read alike, the source gives them in different places. Each block holds one compound with its values, some of them ahead of it.

Legend:
[1] = system: histone methyltransferases CARM1, PRMT1 and SUV39H1
[2] = system: H3K79 methylation in MV4-11 cells; experiment: cells; conditions: Homo sapiens, MV4-11, 96 h, read-out: IC50 of H3K79 methylation inhibition
[3] = Human plasma stability assay; format: in vitro ADME
Method: For human plasma stability assay, to human plasma (500 μL) was added a test compound to a final concentration of 5 μM and incubated at 37° C. at approximately 60 rpm on an orbital shaker. Aliquots of 50 μL were taken from the reaction solution at 0, 15, 30, 45 and 60 minutes. The reaction was stopped by the addition of 6 volumes of cold acetonitrile. Samples were centrifuged at 20,000 g for 15 minutes to precipitate protein. An aliquot of 150 μL of the supernatant was used to determine the remaining amount of the test compound, using the same LC/MS/MS method described above. All experiments were performed in duplicate.

[4] = Human liver microsome stability assay; format: in vitro ADME
MDA-MB231 = experiment: Apoptosis of MDA-MB231, FACS with Annexin-V assay; conditions: 10-day treatment
[5] = system: claudin-1, -3, E-cadherin, Snail1, Zeb1, Zeb2 expression in MDA-MB231; experiment: qPCR of cell-cell adhesion and EMT gene expression in MDA-MB231; format: cell-based
Text: Fourth, qPCR was used to find if treatment with SYC-522 affects gene expression of cell-cell adhesion and EMT genes. […].

panel of other HMTs = experiment: Activity against a panel of other HMTs
[6] = continuous infusion, subcutaneously implanted osmotic pump; cited from earlier work
[7] = system: MV4-11 MLL leukemia mouse model; conditions: cited from earlier work

SMILES: CC(C)N(CCCNC(=O)Nc1ccc(C(C)(C)C)cc1)CC1=C[C@@H](n2cnc3c(N)ncnc32)[C@H](O)[C@@H]1O [compound of Formula VII, 1-(3-((((3R,4S,5R)-3-adenosyl-4,5-dihydroxycyclopent-1-en-1-yl)methyl)-(isopropyl)amino)propyl)-3-(4-(tert-butyl)phenyl)urea]
activity against CARM1, PRMT1 and SUV39H1 (other HMTs) in words [1]: no activity
IC50 [2]: ~0.2 µM
stability in human plasma in words [3]: stable

SMILES: Nc1ncnc2c1ncn2[C@@H]1O[C@H](CSCC[C@H](N)C(=O)O)[C@@H](O)[C@H]1O [SAH, S-(5′-adenosyl)-L-homocysteine, reference compound]
activity against CARM1, PRMT1 and SUV39H1 (other HMTs) in words [1]: broad activity

metabolic stability in human liver microsomes in words [4]: quickly degraded
SMILES: CC(C)N(CCCNC(=O)Nc1ccc(C(C)(C)C)cc1)C[C@H]1O[C@@H](n2cnc3c(N)ncnc32)[C@H](O)[C@@H]1O [SYC-522]
apoptosis of MDA-MB231 at 2 μM (MDA-MB231; 2 μM): negligible apoptosis
apoptosis of MDA-MB231 at 10 μM (MDA-MB231; 10 μM): 18.4%
Zeb1 and Zeb2 expression [5]: unchanged or slightly increased
expression of Snail1 [5]: large decreased expression
increase of the expression of claudin-1, -3 and E-cadherin ([5]; dose-dependent): ≤ 3.9 fold

SMILES: CNc1ncnc2c1ncn2[C@@H]1O[C@H](CSCC[C@H](N)C(=O)O)[C@@H](O)[C@H]1O [compound 24, N6-methyl-SAH]
activity against a panel of other HMTs in words (panel of other HMTs): inactive

SMILES: CC(C)N(CCCNC(=O)Nc1ccc(C(C)(C)C)cc1)C[C@H]1O[C@@H](n2ccc3c(N)ncnc32)[C@H](O)[C@@H]1O [EPZ004777]
stable plasma drug concentration [6]: ~0.5 µM
in vivo efficacy in MLL leukemia mouse model in words [7]: weak in vivo activity
in vivo efficacy in MLL leukemia mouse model in words ([7]; listed as Compound 1): relatively weak in vivo efficacy
